Patent US4486445A, “Justicidin insecticidal and antiviral compounds” (E. I. Du Pont de Nemours and Company, priority 1983, dated 1984)
In brackets after ≈: the same amount, converted by molar mass.

Columns and labels:
A/JAX inbred mice = experiment: in vivo oral toxicity in A/JAX inbred mice; settings: orally, 200 and 100 mg/kg
Method: (§1) In vivo toxicity studies of natural and synthetic Justicidin P produced mixed results. […] However, natural and synthetic Justicidin P were toxic to A/JAX inbred mice when administered orally at dosages of 200 and 100 mg/kg.

in vitro = settings: human, diploid fibroblast cells
[1] = tested on: Herpes Type 2-Alabama strain; experiment: plaque formation inhibition, Herpes Type 2 in HeLa cells; assay type: cell-based
Spodoptera eridania = experiment: insecticidal and feeding inhibition test against southern army worm in pinto bean diet; assay type: in vivo
Method: (§2) The insecticidal activity of the crude acetone/water extracts of Justicia extensa, prepared according to the isolation procedure described previously, was tested against laboratory cultures of the mosquito species Aedes egypti (Linnaeus) and southern army worm (SAW) Spodoptera eridania (Cramer). Extracts of leaves, branches and roots were employed in each test.

HeLa cells = assay type: cell-based; settings: 64 μg/ml to 1 μg/ml
Aedes egypti larvae [2] = experiment: insecticidal activity against larvae of A. egypti in water; assay type: in vivo; settings: lower concentrations
[3] = tested on: southern army worm (SAW) Spodoptera eridania; experiment: spray applied to SAW; assay type: in vivo
Method: When a spray containing 2.0 mg/ml purified Justicidin P in water was applied to SAW, 85% feeding inhibition but 0% kill was observed.

IMR-90 cells = settings: all concentrations tested
[4] = tested on: Human Rhino Virus (HRV-2); experiment: inhibition of HRV-2 in HeLa cells; assay type: cell-based, Human rhinovirus HRV-2; settings: Rhinovirus A, 200 PFU
Aedes egypti larvae [5] = experiment: insecticidal activity against larvae of A. egypti in water; assay type: in vivo; settings: Aedes; larvae of A. egypti in H2O; read-out: EC50 (effective kill concentration for 50% of the experimental larvae)
Method: as §2
In tests against larvae of A. egypti, 10 mg of the crude plant extract was thoroughly dispersed in 20 ml of water in a test tube to which 10 first instar larvae were added.

out-bred mice = experiment: in vivo oral toxicity in out-bred mice; settings: orally, up to about 324 mg/kg
Method: as §1

[6] = in vitro toxicity in MDCK cells; assay type: cell-based, Canine; settings: dog
Method: In vitro toxicity studies of natural Justicidin P were conducted using Madin-Darby Canine Kidney (MDCK) cells and test concentrations ranging between 0.01 and 0.56 μg/ml. In these tests, Justicidin P was suspended in MEM, diluted, and suspended in a purified agar solution. Duplicate plates containing MDCK cell layers were washed twice with HBSS, overlayed with the test compound-agar solutions, and incubated at 34° C., 5% CO2 for 72 hours. At the conclusion of the incubation period, cell layers were stained with 1% crystal violet, rinsed with tap water, dried and visually inspected to determine toxicity.

Herpes Type 1-strain VR3 = experiment: plaque formation inhibition, Herpes Type 1 in HeLa cells; assay type: cell-based

COc1cc2c(OC)c3c(c(-c4ccc5c(c4)OCO5)c2cc1OC)C(=O)OC3OC (single isomer, unassigned) [Justicidin P (natural)]
in vivo toxicity (A/JAX inbred mice): toxic
selectivity ratio (in vitro): 10 to 60
Mean Plaques/Plate ([1]; 0.004 μg/ml, HSV-2, HeLa): 136
Mean Plaques/Plate ([1]; 0.016 μg/ml, HSV-2, HeLa): 114
Mean Plaques/Plate ([1]; 0.063 μg/ml, HSV-2, HeLa): 60
Mean Plaques/Plate ([1]; 0.25 μg/ml, HSV-2, HeLa): 7
antiviral activity against Herpes Type 2 ([1]; HeLa cells): demonstrated antiviral activity
inhibition at 0.004 µg/mL ([1]; Human alphaherpesvirus 2, 0.004 μg/ml, HSV-2, HeLa): 14%
inhibition at 0.016 µg/mL ([1]; Human alphaherpesvirus 2, 0.016 μg/ml, HSV-2, HeLa): 28%
inhibition at 0.063 µg/mL ([1]; Human alphaherpesvirus 2, 0.063 μg/ml, HSV-2, HeLa): 62%
inhibition at 0.25 µg/mL ([1]; Human alphaherpesvirus 2, 0.25 μg/ml, HSV-2, HeLa): 96%
feeding inhibition (Spodoptera eridania; 1 μg/gm in pinto bean diet): 62%
feeding inhibition (Spodoptera eridania; 10 μg/gm in pinto bean diet): 77%
feeding inhibition (Spodoptera eridania; 100 μg/gm in pinto bean diet): 85%
mortality at 1 µg/g (Spodoptera eridania; Spodoptera eridania, 1 μg/gm in pinto bean diet, read-out: kill): 20%
mortality at 10 µg/g (Spodoptera eridania; Spodoptera eridania, 10 μg/gm in pinto bean diet, read-out: kill): 10%
mortality at 100 µg/g (Spodoptera eridania; Spodoptera eridania, 100 μg/gm in pinto bean diet, read-out: kill): 60%
cytotoxicity (HeLa cells): severe cytotoxicity
insecticidal activity of purified fractions (Aedes egypti larvae [2]): insecticidal component of the J. extensa extracts
mortality at 2000 µg/mL ([3]; Spodoptera eridania, topical, read-out: kill): 0%
feeding inhibition ([3]; spray containing 2.0 mg/ml in water): 85%
cytotoxicity (IMR-90 cells): exhibited cytotoxicity at all concentrations tested
inhibition at 0.016 µg/mL ([4]; HRV2, 0.016 μg/ml): 107%
inhibition at 0.08 µg/mL ([4]; HRV2, 0.08 μg/ml): ≥ 100%
inhibition at 0.4 µg/mL ([4]; HRV2, 0.4 μg/ml): ≥ 100%
inhibition at 2 µg/mL ([4]; HRV2, 2 μg/ml): ≥ 100%
inhibition at 10 µg/mL ([4]; HRV2, 10 μg/ml): 64%
LC50 (Aedes egypti larvae [5]): 0.05 µg/mL (≈ 0.118 µM)
in vivo toxicity (out-bred mice): no toxicity was observed
cytotoxicity at 72 h ([6]; 0.01 μg/ml): 1%
cytotoxicity at 72 h ([6]; 0.02 μg/ml): 5%
cytotoxicity at 72 h ([6]; 0.05 μg/ml): 15%
cytotoxicity at 72 h ([6]; 0.11 μg/ml): 30%
cytotoxicity at 72 h ([6]; 0.25 μg/ml): 40%
cytotoxicity at 72 h ([6]; 0.56 μg/ml): 70%
Mean Plaques/Plate (Herpes Type 1-strain VR3; 0.004 μg/ml, HSV-1, HeLa): 134
Mean Plaques/Plate (Herpes Type 1-strain VR3; 0.016 μg/ml, HSV-1, HeLa): 117
Mean Plaques/Plate (Herpes Type 1-strain VR3; 0.063 μg/ml, HSV-1, HeLa): 122
Mean Plaques/Plate (Herpes Type 1-strain VR3; 0.25 μg/ml, HSV-1, HeLa): 87
antiviral activity against Herpes Type 1 (Herpes Type 1-strain VR3; HeLa cells): demonstrated antiviral activity
inhibition at 0.004 µg/mL (Herpes Type 1-strain VR3; Human alphaherpesvirus 1, 0.004 μg/ml, HSV-1, HeLa): 0%
inhibition at 0.016 µg/mL (Herpes Type 1-strain VR3; Human alphaherpesvirus 1, 0.016 μg/ml, HSV-1, HeLa): 6%
inhibition at 0.063 µg/mL (Herpes Type 1-strain VR3; Human alphaherpesvirus 1, 0.063 μg/ml, HSV-1, HeLa): 2%
inhibition at 0.25 µg/mL (Herpes Type 1-strain VR3; Human alphaherpesvirus 1, 0.25 μg/ml, HSV-1, HeLa): 31%
